In paper PMC8782923, “A Klotho-derived peptide protects against kidney fibrosis by targeting TGF-β signaling” (Nature Communications, 2022):
Several values for one entry are separate records, joined by “and”; a condition that tells them apart may be missing. Identical values can stand only once.

What was measured:
[1] = tested on: Smad2/3 phosphorylation in NRK-49F cells; test: TGF-β1-induced Smad2/3 phosphorylation in NRK-49F cells (Western blot); format: cell-based, rat; settings: KP1 10 µg/ml (3 μM) or ITD-1 3 μM 1 h, TGF-β1 2 ng/ml 45 min, individual values, n = 3, P <0.001, 0.008 and <0.001, Fig. 3m
Protocol: (§1) Normal rat kidney interstitial fibroblasts (NRK-49F) and human proximal tubular epithelial cells (HKC-8) were cultured at 37 °C. NRK-49F cells were serum-starved for 24 h and were pretreated with KP1 (10 µg/ml, 3 µM) for 1 h prior to incubation with TGF-β1 (#240-B; R&D Systems) at 2 ng/ml. Cells were collected at 45 min or 24 h after TGF-β1 treatment, respectively. Whole-cell lysates were prepared and subjected to Western blot analyses. For some experiments, cells were transiently transfected with expression vector human secreted Klotho (sKlotho) that only contains KL1 domain[48], by using Lipofectamine 2000 reagent (Invitrogen, Grand Island, NY) prior to treatment with TGF-β1.
(§2) Western blot analysis was performed as previously described. […] Image J (v1.8.0) was used to quantify Western blot results.

[2] = tested on: ERK1/2, JNK and p38 phosphorylation in NRK-49F cells; test: TGF-β1-induced MAPK (ERK1/2, JNK, p38) phosphorylation in NRK-49F cells (Western blot); format: cell-based, rat; settings: KP1 10 µg/ml (3 μM) or ITD-1 3 μM 1 h, TGF-β1 2 ng/ml 45 min, individual values, n = 3, P <0.001, <0.001 and <0.001, Fig. 3n
Protocol: as §1, §2

UUO mice = test: KP1 versus ITD-1 in UUO mice: renal TGF-β signaling and fibrosis proteins (Western blot); format: in vivo, mouse; set-up: renal p-Smad2 (Western blot) / renal p-Smad3 (Western blot) / renal p-p38 (Western blot) / renal p-JNK (Western blot) / renal collagen I (Western blot) / renal fibronectin (Western blot) / renal α-SMA (Western blot): unit not given here; settings: KP1 1 mg/kg (0.31 μM/kg) or ITD-1 0.31 μM/kg, individual animals
Protocol: (§3) Male BALB/c mice weighing 20–22 g were purchased from Beijing Vital River Laboratory Animal Technology Co. and housed in a standard environment which was characterized by 12 h light/dark cycle, 22–25 °C, and 40–60% humidity with free access to water and chow (catalog number: SWS9102). Mice have randomly divided into 3 groups: (i) sham controls; (ii) UIRI or UUO mice treated with vehicle; (iii) UIRI or UUO mice treated with KP1. A renal UIRI model was performed. Briefly, under general anesthesia, mice were made a midline abdominal incision, and the left kidney was clipped for 35 min by a vascular clamp. Mice were kept on the heating block at 37 °C during ischemia. The contralateral right kidney was removed on day 10 after ischemia–reperfusion. Mice were sacrificed 11 days after IRI. Blood and kidneys were collected for analysis. UUO model was established. Briefly, the left ureter of the lower pole of the kidney was obstructed by 3–0 surgical suture. KP1 peptide was dissolved in 0.01 M acetic acid and administrated intravenously via tail vein at concentration of 1 mg/day/kg (0.31 μM/day/kg) body weight for 6 days. For some experiments, ITD-1 (S6713, Selleck) was dissolved in PBS with 0.025% DMSO and 0.1% Tween 80 buffer and injected via tail vein at 0.31 μM/day/kg body weight. All animal studies were approved by the Laboratory Animal Ethics Committee of Nanfang Hospital, Southern Medical University.
Western blot analysis was performed as previously described. The primary antibodies used were as follows: anti-fibronectin (dilution 1:10000; F3648; Sigma), anti-α-SMA (dilution 1:1000; ab7817; Abcam), anti-collagen-1 (dilution 1:1000; BM4017; Boster), anti-p-Smad3 (dilution 1:1000; #9520), anti-p-Smad2 (dilution 1:1000; #3104s), anti-p-ERK (dilution 1:1000; #9101s), anti-p-p38 (dilution 1:1000; #9211s), anti-p-JNK (dilution 1:1000; #9251s), anti-Smad2/3 (dilution 1:1000; #8685s), anti-JNK (dilution 1:1000; #9252), anti-ERK (dilution 1:1000; #4695), anti-p38 (dilution 1:1000; #8690; Cell Signaling Technology), anti-Klotho (dilution 1:1000; AF1819; R&D System), anti-TβR2 (dilution 1:1000; sc-7791; Santa Cruz), anti-TGF-β1 (dilution 1:1000; ab92486; Abcam), anti-GAPDH (dilution 1:5000; LK9002L; Sungene, Tianjin), anti-FITC (dilution 1:1000; PA1-26793; Invitrogen), anti-F4/80 (dilution 1:1000; 14-4801-82, eBioscience). The integration of all blots images was performed on Adobe Photoshop CS6. Graphpad Prism 8 was used to get statistics figures. Image J (v1.8.0) was used to quantify Western blot results. […]
in vivo. UUO mice were treated with KP1 (1 mg/kg, 0.31 μM/kg) or ITD-1 (0.31 μM/kg). We stern blot analyses (a, b) and quantitative data of p-Smad2 (c), p-Smad3 (d), p-ERK1/2 (e), p-JNK (f) and p-p38 […]
n=6 biologically independent animals. (h-k) Western blot analyses (h) and quantitative data of fibronectin (i), α-SMA (j) and Collagen Ⅰ (k) are shown. P values (from left to right): 0.001, 0.627, […]
independent animals. Data are presented as mean values +/- SEM. Statistical significance was determined by one-way ANOVA followed by Dunnett’s T3 post hoc test.
(1 picture or pasted object on this page, not shown here)

[3] = target: T1, TGF-β receptor 2 (TβR2), recombinant (Homo sapiens, UniProt P37173); test: SPR affinity measurement (Biacore T200); format: binding; settings: 25 °C, 1:1 fit, KP1 0.78–25 μM, KP12 1.56–100 μM, representative of two independent experiments, read-out: ka
T1 construct: purchased Sino Biological Inc., Beijing, China 10358-H03H-B
Protocol: The SPR analyses were performed on a Biacore T200 apparatus (GE Healthcare, Uppsala Sweden) at 25 °C. Recombinant TGF-β receptor 2 protein (43.4 kDa, >95% as determined by SDS-PAGE) (10358-H03H-B; Sino Biological Inc., Beijing, China) diluted at 50 µg/ml in 10 mM acetate pH 4.0, was covalently immobilized on a CM5 sensor chip (GE Healthcare) using amine-coupling chemistry. Samples of KP1 (3.229 kDa, HPLC purity >95%) or KP12 (3.6 kDa, HPLC purity >95%) in PBS at various concentrations were injected at a flow rate of 60 μl/min. The injection time was set to 180 s, the dissociation time was set to 540 s, and 50 mM Gly-HCl (pH = 2.5) was used as the regeneration buffer. Data were fitted to a 1:1 binding model to obtain KD. All results presented were representative of double or triplicated injections in an interleaved manner. Two independent experiments were performed.

UIRI mice = test: Blood calcium and phosphorus in UIRI mice; format: in vivo, mouse
Protocol: as §3

T1 sequence (P37173 23-159 limits assumed): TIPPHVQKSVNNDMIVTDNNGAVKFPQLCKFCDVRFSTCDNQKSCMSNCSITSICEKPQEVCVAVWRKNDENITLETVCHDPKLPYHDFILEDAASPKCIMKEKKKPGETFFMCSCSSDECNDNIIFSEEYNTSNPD

kon [3] [M⁻¹ s⁻¹]	SMILES	p-Smad3 (quantitative Western blot), KP1 versus ITD-1 [1]	p-p38 (quantitative Western blot), KP1 versus ITD-1 [2]	renal collagen I (Western blot) (UUO mice; n = 6, P 0.001, 0.477, 0.001, Supplementary Fig. 5k)	renal fibronectin (Western blot) (UUO mice; n = 6, P 0.001, 0.627, <0.001, Supplementary Fig. 5i)	renal p-ERK1/2 (Western blot) (UUO mice; n = 6, P 0.004, 0.988, 0.002, Supplementary Fig. 5e)	renal α-SMA (Western blot) (UUO mice; n = 6, P 0.006, 0.497, 0.007, Supplementary Fig. 5j)	renal p-Smad3 (Western blot) (UUO mice; n = 6, P <0.001, 0.438, <0.001, Supplementary Fig. 5d)	renal p-JNK (Western blot) (UUO mice; n = 6, P <0.001, 0.758, <0.001, Supplementary Fig. 5f)	renal p-p38 (Western blot) (UUO mice; n = 6, P <0.001, 1.00, 0.001, Supplementary Fig. 5g)	renal p-Smad2 (Western blot) (UUO mice; n = 6, P <0.001, 1.00, <0.001, Supplementary Fig. 5c)	phosphorus (UIRI mice; UIRI mice + KP1, individual animals, n = 6, UIRI vs UIRI/KP1 P=0.220, Supplementary Table 2)	calcium (UIRI mice; UIRI mice + KP1, individual animals, n = 6, UIRI vs UIRI/KP1 P=0.798, Supplementary Table 2)	effect on blood phosphorus and calcium (in words) (UIRI mice; compared to the UIRI group)
–	CCOC(=O)C1=C(C)NC2=C(C(=O)CC(C)(C)C2)C1c1ccc(-c2ccccc2)cc1 (centres unmarked) [ITD-1]	2.756 and 2.347 and 1.188	2.793 and 1.62 and 1.25	6.627 and 4.346 and 7.91 and 8.759 and 4.669 and 8.535	9.72 and 9.315 and 3.815 and 3.805 and 3.523 and 5.024	11.5729 and 8.005 and 9.67 and 4.8 and 3.482 and 4.512	10.3176 and 15.77 and 12.2484 and 11.8776 and 11.4615 and 9.704	6.279 and 6.866 and 5.7731 and 6.57 and 6.136 and 7.119	4.803 and 6.567 and 5.7 and 7.786 and 5.264 and 7.2	5.956 and 6.507 and 4.878 and 4.538 and 5.819 and 6.755	18.8987 and 13.9891 and 9.419 and 10.7729 and 8.909 and 13.9004	–	–	–
408	CC(C)C[C@H](NC(=O)[C@H](Cc1ccccc1)NC(=O)CNC(=O)[C@H](CC(=O)O)NC(=O)[C@@H]1CCCN1C(=O)[C@H](Cc1ccccc1)NC(=O)[C@@H](NC(=O)CNC(=O)[C@H](CCC(N)=O)NC(=O)[C@@H](N)Cc1ccccc1)[C@@H](C)O)C(=O)N[C@@H](Cc1c[nH]c2ccccc12)C(=O)N[C@@H](C)C(=O)N[C@H](C(=O)NCC(=O)N[C@@H](CO)C(=O)N[C@@H](C)C(=O)N[C@@H](C)C(=O)N[C@@H](Cc1ccc(O)cc1)C(=O)N[C@@H](CCC(N)=O)C(=O)N[C@H](C(=O)N[C@@H](CCC(=O)O)C(=O)NCC(=O)NCC(=O)N[C@@H](Cc1c[nH]c2ccccc12)C(=O)N[C@@H](CCC(N)=O)C(=O)N[C@@H](CCC(N)=O)C(=O)N[C@@H](Cc1c[nH]cn1)C(=O)NCC(=O)N[C@@H](CCCCN)C(=O)NCC(=O)O)[C@@H](C)O)C(C)C [KP1]	–	–	–	–	–	–	–	–	–	–	4.92 mmol/L and 5.73 mmol/L and 6.63 mmol/L and 4.9 mmol/L and 3.76 mmol/L and 4.04 mmol/L	2.71 mmol/L and 2.53 mmol/L and 2.54 mmol/L and 2.38 mmol/L and 2.93 mmol/L and 2.46 mmol/L	did not affect blood phosphorus and calcium level compared to the UIRI group
